Measurements as given in publication PMC5218480 (PLoS ONE, 2017).

Test system: MV-4-11 cells
Experiment: Gene expression microarray analysis (Affymetrix PrimeView) and GSEA
Format: cell-based, human
Design: RFU PODN (11730768_x_at) / Fold change /veh PODN (11730768_x_at) / RFU LINC00158 (11744669_a_at) / Fold change /veh LINC00158 (11744669_a_at) / RFU DUSP10 (11751237_a_at) / Fold change /veh DUSP10 (11751237_a_at) / RFU ID3 (11757404_x_at) / Fold change /veh ID3 (11757404_x_at) / RFU PLEKHG5 (11737974_s_at) / Fold change /veh PLEKHG5 (11737974_s_at) / RFU LRRC4B (11730491_at) / Fold change /veh LRRC4B (11730491_at) / RFU GIMAP4 (11747438_a_at) / Fold change /veh GIMAP4 (11747438_a_at) / RFU KRT8 (11758183_x_at) / Fold change /veh KRT8 (11758183_x_at) / RFU CNN1 (11734310_a_at) / Fold change /veh CNN1 (11734310_a_at) / RFU VPS37D (11726825_at) / Fold change /veh VPS37D (11726825_at) / RFU C10orf10 (11716522_x_at) / Fold change /veh C10orf10 (11716522_x_at) / RFU KIR2DL2 /// KIR2DL4 /// KIR2DL5A /// KIR2DL5B /// KIR2DS1 /// KIR2DS2 /// KIR2DS3 /// KIR2DS4 /// KIR3DL3 /// KIR3DL3 /// KIR3DS1 (11738374_at) / Fold change /veh KIR2DL2 /// KIR2DL4 /// KIR2DL5A /// KIR2DL5B /// KIR2DS1 /// KIR2DS2 /// KIR2DS3 /// KIR2DS4 /// KIR3DL3 /// KIR3DL3 /// KIR3DS1 (11738374_at) / RFU C1QL1 (11718748_at) / Fold change /veh C1QL1 (11718748_at) / RFU TMPRSS4 (11747572_a_at) / Fold change /veh TMPRSS4 (11747572_a_at) / RFU HAMP (11756126_x_at) / Fold change /veh HAMP (11756126_x_at) / RFU RNFT2 (11725882_a_at) / Fold change /veh RNFT2 (11725882_a_at) / RFU NR4A2 (11747474_a_at) / Fold change /veh NR4A2 (11747474_a_at) / RFU ABCC12 (11746883_a_at) / Fold change /veh ABCC12 (11746883_a_at) / RFU TMEM136 (11760407_x_at) / Fold change /veh TMEM136 (11760407_x_at) / RFU CLDN22 /// WWC2 (11732394_at) / Fold change /veh CLDN22 /// WWC2 (11732394_at) / RFU HLA-DPB1 (11760878_x_at) / Fold change /veh HLA-DPB1 (11760878_x_at) / RFU SPINT1 (11716480_a_at) / Fold change /veh SPINT1 (11716480_a_at) / RFU GAP43 (11754022_s_at) / Fold change /veh GAP43 (11754022_s_at) / RFU A4GNT (11735810_at) / Fold change /veh A4GNT (11735810_at) / RFU PRB3 (11715151_x_at) / Fold change /veh PRB3 (11715151_x_at) / RFU TUBB4B (11761932_at) / Fold change /veh TUBB4B (11761932_at) / RFU CAPN14 (11732068_a_at) / Fold change /veh CAPN14 (11732068_a_at) / RFU TMCC2 (11721928_a_at) / Fold change /veh TMCC2 (11721928_a_at) / RFU IRGQ (11745062_a_at) / Fold change /veh IRGQ (11745062_a_at) / RFU FAM174B (11720279_a_at) / Fold change /veh FAM174B (11720279_a_at) / RFU TMPRSS4 (11748680_a_at) / Fold change /veh TMPRSS4 (11748680_a_at) / RFU FAM212B (11763350_a_at) / Fold change /veh FAM212B (11763350_a_at) / RFU PLEKHG5 (11743358_a_at) / Fold change /veh PLEKHG5 (11743358_a_at) / RFU ZSCAN30 (11745921_a_at) / Fold change /veh ZSCAN30 (11745921_a_at) / RFU CMKLR1 (11741424_a_at) / Fold change /veh CMKLR1 (11741424_a_at) / RFU LOC101060620 /// MAPK8IP1 (11723275_at) / Fold change /veh LOC101060620 /// MAPK8IP1 (11723275_at) / RFU SPTSSB (11747773_x_at) / Fold change /veh SPTSSB (11747773_x_at) / RFU PRSS12 (11739890_at) / Fold change /veh PRSS12 (11739890_at) / RFU BIN1 (11741810_x_at) / Fold change /veh BIN1 (11741810_x_at) / RFU WNT11 (11732464_a_at) / Fold change /veh WNT11 (11732464_a_at) / RFU C10orf10 (11716521_a_at) / Fold change /veh C10orf10 (11716521_a_at) / RFU C5orf56 (11738089_at) / Fold change /veh C5orf56 (11738089_at) / RFU CYB561 (11721691_x_at) / Fold change /veh CYB561 (11721691_x_at) / RFU ANKRD19P (11752326_a_at) / Fold change /veh ANKRD19P (11752326_a_at) / RFU OR2T12 /// OR2T33 /// OR2T8 (11738714_s_at) / Fold change /veh OR2T12 /// OR2T33 /// OR2T8 (11738714_s_at) / RFU VCAN (11748164_a_at) / Fold change /veh VCAN (11748164_a_at) / RFU JSRP1 (11732532_at) / Fold change /veh JSRP1 (11732532_at) / RFU KRTAP10-11 (11738290_x_at) / Fold change /veh KRTAP10-11 (11738290_x_at) / RFU MYO3A (11730013_a_at) / Fold change /veh MYO3A (11730013_a_at) / RFU EBF3 (11725865_a_at) / Fold change /veh EBF3 (11725865_a_at) / RFU CAMK2N1 (11719241_x_at) / Fold change /veh CAMK2N1 (11719241_x_at) / RFU C5orf56 (11738088_a_at) / Fold change /veh C5orf56 (11738088_a_at) / RFU OLFML3 (11715873_a_at) / Fold change /veh OLFML3 (11715873_a_at) / RFU LOC100653217 /// NTM (11731650_a_at) / Fold change /veh LOC100653217 /// NTM (11731650_a_at) / RFU MAPK11 (11762145_a_at) / Fold change /veh MAPK11 (11762145_a_at) / RFU FIZ1 (11724087_x_at) / Fold change /veh FIZ1 (11724087_x_at) / RFU OASL (11726364_x_at) / Fold change /veh OASL (11726364_x_at) / RFU SOX15 (11748057_x_at) / Fold change /veh SOX15 (11748057_x_at) / RFU CD79A (11719716_a_at) / Fold change /veh CD79A (11719716_a_at) / RFU HIST1H1D (11736915_at) / Fold change /veh HIST1H1D (11736915_at) / RFU CASKIN2 (11723855_a_at) / Fold change /veh CASKIN2 (11723855_a_at) / RFU LOC730098 (11760151_x_at) / Fold change /veh LOC730098 (11760151_x_at) / RFU OR4N2 (11742367_at) / Fold change /veh OR4N2 (11742367_at) / RFU PRRT2 (11749266_a_at) / Fold change /veh PRRT2 (11749266_a_at) / RFU SNX32 (11753110_a_at) / Fold change /veh SNX32 (11753110_a_at) / RFU CDHR5 (11726645_a_at) / Fold change /veh CDHR5 (11726645_a_at) / RFU RCAN1 (11760418_a_at) / Fold change /veh RCAN1 (11760418_a_at) / RFU FAM167A (11723789_a_at) / Fold change /veh FAM167A (11723789_a_at) / RFU FAM26E (11764081_at) / Fold change /veh FAM26E (11764081_at) / RFU ISYNA1 (11749810_s_at) / Fold change /veh ISYNA1 (11749810_s_at) / RFU ACY1 (11761880_at) / Fold change /veh ACY1 (11761880_at) / RFU 11764098_at / Fold change /veh 11764098_at / RFU SAMD14 (11745864_x_at) / Fold change /veh SAMD14 (11745864_x_at) / RFU NPB (11741838_a_at) / Fold change /veh NPB (11741838_a_at) / RFU TMPRSS6 (11731388_a_at) / Fold change /veh TMPRSS6 (11731388_a_at) / RFU KRTAP10-2 (11738614_at) / Fold change /veh KRTAP10-2 (11738614_at) / RFU ARHGAP8 /// PRR5-ARHGAP8 (11727945_x_at) / Fold change /veh ARHGAP8 /// PRR5-ARHGAP8 (11727945_x_at) / RFU KRTAP5-7 /// NADSYN1 (11734609_at) / Fold change /veh KRTAP5-7 /// NADSYN1 (11734609_at) / RFU RASL12 (11751679_a_at) / Fold change /veh RASL12 (11751679_a_at) / RFU CDKN2B (11736163_a_at) / Fold change /veh CDKN2B (11736163_a_at) / RFU PRF1 (11729649_at) / Fold change /veh PRF1 (11729649_at) / RFU, ZNF638 /// ZNF638-IT1 / Fold change vs veh, ZNF638 /// ZNF638-IT1 / RFU, PANK3 / Fold change vs veh, PANK3 / RFU, SH3YL1 / Fold change vs veh, SH3YL1 / RFU, ZEB2 / Fold change vs veh, ZEB2 / RFU, NRIP1 / Fold change vs veh, NRIP1 / RFU, PTTG1IP / Fold change vs veh, PTTG1IP / RFU, CAPN2 / Fold change vs veh, CAPN2 / RFU, MED14 / Fold change vs veh, MED14 / RFU, SNORA58 / Fold change vs veh, SNORA58 / RFU, C1orf63 / Fold change vs veh, C1orf63 / RFU, LRRFIP1 / Fold change vs veh, LRRFIP1 / RFU, NDUFAF7 / Fold change vs veh, NDUFAF7 / RFU, SLC12A2 / Fold change vs veh, SLC12A2 / RFU, IBTK / Fold change vs veh, IBTK / RFU, ESF1 / Fold change vs veh, ESF1 / Fold change vs veh, TMEM50B / RFU, TAOK1 / Fold change vs veh, TAOK1 / RFU, ACBD3 / Fold change vs veh, ACBD3 / RFU, TMA16 / Fold change vs veh, TMA16 / RFU, RWDD3 / Fold change vs veh, RWDD3 / RFU, BCAT1 / Fold change vs veh, BCAT1 / RFU, EDEM3 / Fold change vs veh, EDEM3 / RFU, TMEM33 / Fold change vs veh, TMEM33 / RFU, WDR75 / Fold change vs veh, WDR75 / RFU, AHCTF1 / Fold change vs veh, AHCTF1 / RFU, TFRC / Fold change vs veh, TFRC / RFU, ZDHHC17 / Fold change vs veh, ZDHHC17 / RFU, NOM1 / Fold change vs veh, NOM1 / RFU, ARL8B / Fold change vs veh, ARL8B / RFU, ZBTB11 / Fold change vs veh, ZBTB11 / RFU, TAMM41 / Fold change vs veh, TAMM41 / RFU, KIAA1704 /// LOC100996395 / Fold change vs veh, KIAA1704 /// LOC100996395 / RFU, ING1 / Fold change vs veh, ING1 / RFU, TRMT61B / Fold change vs veh, TRMT61B / RFU, FUBP3 / Fold change vs veh, FUBP3 / RFU, TP53 / Fold change vs veh, TP53 / RFU, TNKS2 / Fold change vs veh, TNKS2 / RFU, ZFP14 / Fold change vs veh, ZFP14 / RFU, ACTR2 / Fold change vs veh, ACTR2 / RFU, PPP3R1 / Fold change vs veh, PPP3R1 / RFU, PIK3R1 / Fold change vs veh, PIK3R1 / RFU, HNRNPA1 / Fold change vs veh, HNRNPA1 / RFU, RNF170 / Fold change vs veh, RNF170 / RFU, ZNF28 / Fold change vs veh, ZNF28 / RFU, RNGTT / Fold change vs veh, RNGTT / RFU, OGT / Fold change vs veh, OGT / RFU, BRD1 / Fold change vs veh, BRD1 / RFU, MARS / Fold change vs veh, MARS / RFU, ZNF655 / Fold change vs veh, ZNF655 / RFU, FAHD1 / Fold change vs veh, FAHD1 / RFU, BDP1 / Fold change vs veh, BDP1 / RFU, LRRCC1 / Fold change vs veh, LRRCC1 / RFU, ARID1A / Fold change vs veh, ARID1A / RFU, ZNF146 / Fold change vs veh, ZNF146 / RFU, ZNF330 / Fold change vs veh, ZNF330 / RFU, GPN3 / Fold change vs veh, GPN3 / RFU, C9orf123 / Fold change vs veh, C9orf123 / RFU, N4BP2L2 / Fold change vs veh, N4BP2L2 / RFU, ARFIP1 / Fold change vs veh, ARFIP1 / RFU, FAM179B / Fold change vs veh, FAM179B / RFU, BCL10 / Fold change vs veh, BCL10 / RFU, UHRF1BP1L / Fold change vs veh, UHRF1BP1L / RFU, BET1 / Fold change vs veh, BET1 / RFU, CNOT2 / Fold change vs veh, CNOT2 / RFU, ZNF268 / Fold change vs veh, ZNF268 / Fold change vs veh, ZNF507 / RFU, DGCR2 / Fold change vs veh, DGCR2 / RFU, WDSUB1 / Fold change vs veh, WDSUB1 / Fold change vs veh, HSP90B1 /// MIR3652 / RFU, ADSS / Fold change vs veh, ADSS / RFU, GK / Fold change vs veh, GK / RFU, ZNF148 / Fold change vs veh, ZNF148 / RFU, TAF9 / Fold change vs veh, TAF9 / RFU, SLC1A5 / Fold change vs veh, SLC1A5 / RFU, SLMO2 / Fold change vs veh, SLMO2 / RFU, ABCC4 / Fold change vs veh, ABCC4 / RFU, LOC101060439 /// RAP1B / Fold change vs veh, LOC101060439 /// RAP1B / RFU, RFX7 / Fold change vs veh, RFX7 / RFU, GTPBP10 / Fold change vs veh, GTPBP10 / RFU, CNEP1R1 / Fold change vs veh, CNEP1R1 / RFU, BIVM-ERCC5 /// ERCC5 / Fold change vs veh, BIVM-ERCC5 /// ERCC5 / RFU, ILF3 / Fold change vs veh, ILF3 / RFU 11762660_at / Fold change /veh 11762660_at / RFU VCAN (11757783_s_at) / Fold change /veh VCAN (11757783_s_at) / RFU DDX43 (11728927_at) / Fold change /veh DDX43 (11728927_at) / RFU KRT8 (11758188_x_at) / Fold change /veh KRT8 (11758188_x_at) / RFU NKD1 (11759106_at) / Fold change /veh NKD1 (11759106_at) / RFU SRD5A1 (11742802_a_at) / Fold change /veh SRD5A1 (11742802_a_at) / RFU TPSAB1 /// TPSB2 (11721975_s_at) / Fold change /veh TPSAB1 /// TPSB2 (11721975_s_at) / RFU GSTM3 (11746129_a_at) / Fold change /veh GSTM3 (11746129_a_at) / RFU IL23R (11737362_x_at) / Fold change /veh IL23R (11737362_x_at) / RFU TMEM51 (11727254_a_at) / Fold change /veh TMEM51 (11727254_a_at) / RFU PIWIL2 (11732686_x_at) / Fold change /veh PIWIL2 (11732686_x_at) / RFU ORM1 (11744905_x_at) / Fold change /veh ORM1 (11744905_x_at) / RFU CCDC152 (11743942_at) / Fold change /veh CCDC152 (11743942_at) / RFU ECM1 (11717891_a_at) / Fold change /veh ECM1 (11717891_a_at) / RFU IL23R (11748794_a_at) / Fold change /veh IL23R (11748794_a_at) / RFU TNFAIP8L3 (11732012_x_at) / Fold change /veh TNFAIP8L3 (11732012_x_at) / RFU MBOAT4 (11741988_at) / Fold change /veh MBOAT4 (11741988_at) / RFU 11764193_at / Fold change /veh 11764193_at / RFU TMEM53 (11763286_at) / Fold change /veh TMEM53 (11763286_at) / RFU MAGEB2 (11727129_at) / Fold change /veh MAGEB2 (11727129_at) / RFU TMEM200A (11744735_a_at) / Fold change /veh TMEM200A (11744735_a_at) / RFU CCDC152 (11751479_a_at) / Fold change /veh CCDC152 (11751479_a_at) / RFU FAM211A (11726209_a_at) / Fold change /veh FAM211A (11726209_a_at) / RFU RGS16 (11746705_a_at) / Fold change /veh RGS16 (11746705_a_at) / RFU VCAN (11755009_s_at) / Fold change /veh VCAN (11755009_s_at) / RFU RHOB (11743442_s_at) / Fold change /veh RHOB (11743442_s_at) / RFU RGS16 (11720943_a_at) / Fold change /veh RGS16 (11720943_a_at) / RFU RGS16 (11720944_at) / Fold change /veh RGS16 (11720944_at) / RFU, VPS4B / Fold change vs veh, VPS4B / RFU, CREB1 / Fold change vs veh, CREB1 / RFU, DNAJC13 / Fold change vs veh, DNAJC13 / RFU, GNAQ / Fold change vs veh, GNAQ / RFU, CDK5R1 / Fold change vs veh, CDK5R1 / RFU, ZRANB3 / Fold change vs veh, ZRANB3 / RFU, CUL4A / Fold change vs veh, CUL4A / RFU, CCNY / Fold change vs veh, CCNY / RFU, UFL1 / Fold change vs veh, UFL1 / RFU, COG3 / Fold change vs veh, COG3 / RFU, DIAPH2 / Fold change vs veh, DIAPH2 / RFU, SKA2 / Fold change vs veh, SKA2 / RFU, AFF3 / Fold change vs veh, AFF3 / RFU, LMF1 / Fold change vs veh, LMF1 / RFU, IPO11 / Fold change vs veh, IPO11 / RFU, DFFB / Fold change vs veh, DFFB / RFU, FOXP1 / Fold change vs veh, FOXP1 / RFU, CARD8 / Fold change vs veh, CARD8 / RFU, STRN3 / Fold change vs veh, STRN3 / RFU, ADK / Fold change vs veh, ADK / RFU, RASSF2 / Fold change vs veh, RASSF2 / RFU, WIPF1 / Fold change vs veh, WIPF1 / RFU, LARP1B / Fold change vs veh, LARP1B / RFU, RASA1 / Fold change vs veh, RASA1 / RFU, RB1 / Fold change vs veh, RB1 / RFU, PPFIA1 / Fold change vs veh, PPFIA1 / RFU, MAT2A / Fold change vs veh, MAT2A / RFU, CCT5 / Fold change vs veh, CCT5 / RFU, WDR92 / Fold change vs veh, WDR92 / RFU, CUX1 / Fold change vs veh, CUX1 / RFU, TTC7A / Fold change vs veh, TTC7A / RFU, TMEM135 / Fold change vs veh, TMEM135 / RFU, DEPTOR / Fold change vs veh, DEPTOR / RFU, CPM / Fold change vs veh, CPM / RFU, DNAJB6 / Fold change vs veh, DNAJB6 / RFU, CACNA2D3 / Fold change vs veh, CACNA2D3 / RFU, DTX4 / Fold change vs veh, DTX4 / RFU, TFCP2 / Fold change vs veh, TFCP2 / RFU, GMCL1 /// GMCL1P1 / Fold change vs veh, GMCL1 /// GMCL1P1 / RFU, AEBP2 / Fold change vs veh, AEBP2 / RFU, SNHG1 /// SNORD22 /// SNORD25 /// SNORD26 /// SNORD27 /// SNORD28 /// SNORD29 /// SNORD31 / Fold change vs veh, SNHG1 /// SNORD22 /// SNORD25 /// SNORD26 /// SNORD27 /// SNORD28 /// SNORD29 /// SNORD31 / Fold change (Aza/veh), C12orf56 (ProbeSet 11735607_a_at) / Fold change (ACY-1035/veh), C12orf56 (ProbeSet 11735607_a_at) / Fold change (Aza/veh), FGFR1OP (ProbeSet 11751329_s_at) / Fold change (ACY-1035/veh), FGFR1OP (ProbeSet 11751329_s_at) / Fold change (Aza/veh), VPS36 (ProbeSet 11739960_a_at) / Fold change (ACY-1035/veh), VPS36 (ProbeSet 11739960_a_at) / RFU SYPL1 (11715823_x_at) / Fold change /veh SYPL1 (11715823_x_at) / RFU IGFBP7 (11715501_s_at) / Fold change /veh IGFBP7 (11715501_s_at) / RFU REEP3 (11722064_at) / Fold change /veh REEP3 (11722064_at) / RFU IGLL1 (11728026_x_at) / Fold change /veh IGLL1 (11728026_x_at): dose or concentration left out as unconfirmed
Details: ProbeSet 11732433_s_at; LIST B

Nc1ccc(-c2cccs2)cc1NC(=O)c1ccc2c(c1)cc(C1CC1)n2CCN1CCOCC1 [ACY-1035]
Fold change vs veh, GK: 1.08
